These results are taken from patent US12479847B2 (DANA-FARBER CANCER INSTITUTE, INC., priority 2019, dated 2025).

Read-outs that look alike come from different tables or passages of the source.

Assay in all cases: KINOMEscan (ScanMAX) kinase profiling
Common to all, as to type: binding

Assay [1] addresses T1, panel of 468 kinases (Homo sapiens, UniProt P00519, T315I).
T1 construct: purchased KINOMEscan (ScanMAX) service
Particulars: 1 μM, read-out: % control.

Assay [2] deals with T2, panel of 468 kinases (Homo sapiens, UniProt P22455).
T2 construct: purchased KINOMEscan (ScanMAX) service
T2 sequence (P22455 22-802): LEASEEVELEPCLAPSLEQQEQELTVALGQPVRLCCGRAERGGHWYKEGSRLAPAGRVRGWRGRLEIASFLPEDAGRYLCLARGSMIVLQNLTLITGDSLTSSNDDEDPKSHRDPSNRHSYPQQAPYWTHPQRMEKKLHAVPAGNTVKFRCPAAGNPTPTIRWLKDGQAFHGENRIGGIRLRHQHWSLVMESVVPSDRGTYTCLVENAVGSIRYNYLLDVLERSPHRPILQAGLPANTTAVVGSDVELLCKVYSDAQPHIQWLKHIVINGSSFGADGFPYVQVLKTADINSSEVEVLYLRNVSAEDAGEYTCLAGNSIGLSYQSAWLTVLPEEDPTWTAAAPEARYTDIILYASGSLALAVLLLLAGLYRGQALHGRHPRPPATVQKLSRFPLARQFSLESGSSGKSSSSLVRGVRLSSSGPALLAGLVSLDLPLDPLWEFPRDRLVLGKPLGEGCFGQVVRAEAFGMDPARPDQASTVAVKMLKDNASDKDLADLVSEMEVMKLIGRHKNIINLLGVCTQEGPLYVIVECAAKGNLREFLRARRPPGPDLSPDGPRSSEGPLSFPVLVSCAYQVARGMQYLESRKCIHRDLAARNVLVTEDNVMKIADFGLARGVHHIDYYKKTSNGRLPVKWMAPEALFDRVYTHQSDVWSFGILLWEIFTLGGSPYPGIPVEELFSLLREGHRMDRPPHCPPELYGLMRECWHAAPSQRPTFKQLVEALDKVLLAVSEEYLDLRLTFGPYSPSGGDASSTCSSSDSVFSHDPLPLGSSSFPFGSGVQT
Conditions: FGFR4; 1 μM; read-out: % control.

Assay [3] addresses T3, panel of 468 kinases (Homo sapiens, UniProt Q9H093).
T3 construct: purchased KINOMEscan (ScanMAX) service
T3 sequence (Q9H093 1-628): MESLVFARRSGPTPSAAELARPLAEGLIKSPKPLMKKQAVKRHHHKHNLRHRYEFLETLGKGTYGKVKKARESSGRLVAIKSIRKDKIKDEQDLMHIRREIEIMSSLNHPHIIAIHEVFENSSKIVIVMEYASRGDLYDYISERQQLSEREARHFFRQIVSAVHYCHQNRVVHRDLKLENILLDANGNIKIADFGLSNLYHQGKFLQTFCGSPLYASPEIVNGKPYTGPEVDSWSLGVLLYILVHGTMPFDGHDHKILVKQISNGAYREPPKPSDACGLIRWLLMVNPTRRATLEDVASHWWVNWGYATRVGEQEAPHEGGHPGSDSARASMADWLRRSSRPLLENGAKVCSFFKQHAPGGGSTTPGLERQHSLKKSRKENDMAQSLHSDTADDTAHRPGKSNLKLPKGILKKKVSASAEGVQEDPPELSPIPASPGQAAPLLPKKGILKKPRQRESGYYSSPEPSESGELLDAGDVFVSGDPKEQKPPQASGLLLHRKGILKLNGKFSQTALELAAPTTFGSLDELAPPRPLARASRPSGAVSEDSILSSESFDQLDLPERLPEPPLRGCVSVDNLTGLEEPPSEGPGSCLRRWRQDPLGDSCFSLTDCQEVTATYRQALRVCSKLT
Conditions: SNARK; 1 μM; read-out: % control.

The target of assay [4] is T4, panel of 468 kinases (Homo sapiens, UniProt P36888).
T4 construct: purchased KINOMEscan (ScanMAX) service
T4 sequence (P36888 27-993): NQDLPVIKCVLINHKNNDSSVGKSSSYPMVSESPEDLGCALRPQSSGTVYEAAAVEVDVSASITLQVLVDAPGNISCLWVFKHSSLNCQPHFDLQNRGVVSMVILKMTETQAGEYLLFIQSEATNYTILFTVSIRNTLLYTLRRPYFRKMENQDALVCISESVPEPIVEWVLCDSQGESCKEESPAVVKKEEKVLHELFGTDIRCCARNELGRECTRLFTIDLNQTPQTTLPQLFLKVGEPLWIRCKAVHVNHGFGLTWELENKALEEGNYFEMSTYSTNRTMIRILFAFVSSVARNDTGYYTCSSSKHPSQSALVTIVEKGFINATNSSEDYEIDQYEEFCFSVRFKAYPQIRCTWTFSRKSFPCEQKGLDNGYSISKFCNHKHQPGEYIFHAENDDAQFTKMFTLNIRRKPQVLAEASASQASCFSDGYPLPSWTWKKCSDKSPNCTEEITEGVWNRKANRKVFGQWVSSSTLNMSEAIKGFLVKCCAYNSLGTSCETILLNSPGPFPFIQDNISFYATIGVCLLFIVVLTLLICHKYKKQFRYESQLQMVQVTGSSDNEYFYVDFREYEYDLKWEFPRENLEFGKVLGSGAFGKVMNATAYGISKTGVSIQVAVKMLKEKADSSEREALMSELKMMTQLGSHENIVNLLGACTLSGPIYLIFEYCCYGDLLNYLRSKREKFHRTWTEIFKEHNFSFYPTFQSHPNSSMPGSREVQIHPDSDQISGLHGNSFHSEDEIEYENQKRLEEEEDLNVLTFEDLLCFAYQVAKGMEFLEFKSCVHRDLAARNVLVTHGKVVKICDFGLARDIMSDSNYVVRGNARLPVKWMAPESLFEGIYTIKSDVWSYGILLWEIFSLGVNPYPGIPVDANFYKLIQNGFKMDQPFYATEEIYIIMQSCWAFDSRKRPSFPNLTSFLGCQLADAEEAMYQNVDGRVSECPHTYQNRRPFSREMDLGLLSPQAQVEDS
Conditions: 1 μM, read-out: % control.

As for `CNc1nc(Nc2ccc(S(=O)(=O)N3CCC(N4CCOCC4)CC3)cc2OC)nc2[nH]cc(Cl)c12` [Compound 12, 5-chloro-N2-(2-methoxy-4-((4-morpholinopiperidin-1-yl)sulfonyl)phenyl)-N4-methyl-7H-pyrrolo[2,3-d]pyrimidine-2,4-diamine], the remaining binding at 1 µM came out at 94% at panel of 468 kinases [1] (ABL1(T315I)-nonphosphorylated); 100% at panel of 468 kinases [1] (ABL1(T315I)-phosphorylated); 90% at panel of 468 kinases [2]; 75% at panel of 468 kinases [3]; 87% at panel of 468 kinases [4] (FLT3-autoinhibited); 100% on panel of 468 kinases [4] (FLT3).

Take `CNc1nc(Nc2ccc(C(=O)N3CCC(N4CCOCC4)CC3)c3c2OCO3)nc2[nH]cc(Cl)c12` [Compound 75, (7-((5-chloro-4-(methylamino)-7H-pyrrolo[2,3-d]pyrimidin-2-yl)amino)benzo[d][1,3]dioxol-4-yl)(4-morpholinopiperidin-1-yl)methanone]: the remaining binding at 1 µM stood at 100% on panel of 468 kinases [1] (ABL1(T315I)-nonphosphorylated); 60% at panel of 468 kinases [1] (ABL1(T315I)-phosphorylated); 100% on panel of 468 kinases [2]; 19% on panel of 468 kinases [3]; 83% on panel of 468 kinases [4] (FLT3-autoinhibited); 40% at panel of 468 kinases [4] (FLT3).

Consider `CNc1nc(Nc2ccc(P3(=O)CCN(C4CCOCC4)CC3)cc2OC)nc2[nH]cc(Cl)c12` [Compound 77, 4-(4-((5-chloro-4-(methylamino)-7H-pyrrolo[2,3-d]pyrimidin-2-yl)amino)-3-methoxyphenyl)-1-(tetrahydro-2H-pyran-4-yl)-1,4-azaphosphinane 4-oxide], for which the remaining binding at 1 µM on panel of 468 kinases [1] (ABL1(T315I)-nonphosphorylated) was determined as 99%; at panel of 468 kinases [1] (ABL1(T315I)-phosphorylated), 77%; at panel of 468 kinases [2], 98%; on panel of 468 kinases [3], 70%; at panel of 468 kinases [4] (FLT3-autoinhibited) it was 94%; at panel of 468 kinases [4] (FLT3), 86%.
